Legend:
[1] = tested on: TGF-β2 secretion; assay: TGF-β2 secretion in human tumor cell lines; format: cell-based; conditions: human HGG cell line A-172, 7 days, 10 trabedersen (unit not given)
Procedure: The effect of trabedersen on TGF-β2 secretion was analyzed in cell lines of human HGG, human pancreatic carcinoma, malignant melanoma, colorectal carcinoma, and other tumors (prostate carcinoma, renal cell carcinoma, and non-small cell lung carcinoma). The TGF-β2 concentration in cell culture supernatants after treatment with trabedersen for 7 days was analyzed.
The biological activity of truncated trabedersen, i.e. metabolites, in comparison to full-length trabedersen with respect to inhibition of TGF-β2 secretion was tested in the human HGG cell line A-172.

[2] = tested on: patient derived autologous HGG cells; assay: LAK cell-mediated autologous cytotoxicity (calcein-release assay); format: cell-based, human; conditions: untreated control 16%
Procedure: Human HGG cells were obtained from surgical specimens of 5 patients. PBMCs from these patients were activated with human recombinant IL-2 to generate lymphokine-activated killer (LAK) cells as effector cells, which are known to lyse most autologous and allogenic fresh human tumor cells. LAK cell-mediated cytotoxicity against the patient derived autologous HGG cells (target cells) was tested in a cell co-culture system using the calcein-release assay.

[3] = tested on: human PBMCs; assay: Viability and proliferation of human PBMCs; format: cell-based
Procedure: Cell viability was assessed following treatment of human PBMCs with trabedersen in vitro using the Trypan blue exclusion test. Freshly isolated, IL-2 activated PBMCs from healthy donors and HGG patients were incubated either without trabedersen or with 1, 5, 10 or 80 μM trabedersen for 2, 3, 6, 7, 14, and 21 day. […] There was no difference in cell viability between untreated and trabedersen treated cells.

[4] = Toxicology in monkeys (LOAEL); format: in vivo
[5] = tested on: advanced pancreatic cancer; assay: Phase I/II study P001: patients with pancreatic cancer; format: in vivo, human
Text: (§1) P001 is a completed Phase I/II dose escalation study. Primary objective is the determination of the MTD as well as the DLT of 2 cycles as core treatment and up to 8 optional extension cycles of trabedersen administered i.v. for 4 or 7 d every other week, as described in the following. The study followed a classical cohort design with 3 evaluable patients per cohort. Patients treated with the 1st schedule received trabedersen continuously for 7 d, followed by a treatment-free interval of 7 d for each treatment cycle (7-d-on, 7-d-off). After the MTD had been reached for this schedule, a 2nd schedule of 4 d trabedersen administration, followed by a treatment-free interval of 10 d for each treatment cycle was started (4-d-on, 10-d-off). In this treatment schedule the MTD has not been reached.
Trabedersen was administered as i.v. continuous infusion for 4 or 7 days every other week via an implanted subcutaneous port system connected to a portable pump and with a flow rate of 0.8 mL/h. The core treatment consisted of 2 treatment cycles. Up to 8 optional extension cycles were administered in case of clinical benefit.
(§2) The overall survival is calculated for all patients as the survival time from the onset of treatment with study medication to death due to any cause and analyzed with the Kaplan-Meier method.
Altogether 21 patients with pancreatic cancer were treated during dose escalation.
There was no clear dose-response relationship, neither in the 7-days-on, 7-days-off schedule nor in the 4-days-on, 10-days-off schedule. A similar pattern is seen when the 5 patients with malignant melanoma and 5 patients with colorectal cancer treated during dose-escalation are also included.

[6] = tested on: malignant melanoma; assay: Phase I/II study P001: patients with malignant melanoma; format: in vivo, human
[7] = tested on: colorectal cancer; assay: Phase I/II study P001: patients with colorectal cancer; format: in vivo, human; conditions: all colorectal patients independent of dose and schedule
Text: as §1
Trabedersen was administered as i.v. continuous infusion for 4 or 7 days every other week via an implanted subcutaneous port system connected to a portable pump and with a flow rate of 0.8 mL/h. […]
as §2
One patient with AJCC Stage IV colorectal cancer treated in the 240 mg/m^2/day cohort of the 7-day-on, 7-day-off schedule was assessed with stable disease and survived for 7.3 months. […]

[8] = tested on: SARS-CoV (Urbani strain)
[9] = tested on: SARS-COV-2 USA_WA1/2020
[10] = tested on: Vero 76 cells
[11] = tested on: IL-6; conditions: data-mining of P001 cytokine profiling
[12] = tested on: C8161 human melanoma; assay: Orthotopic C8161 human melanoma model; conditions: group 2: 16 mg/kg SC 3 times/week

## cggcatgtct attttgta (antisense CGGCATGTCTATTTTGTA; chemistry not given here) [OT-101]
[1]
  highest inhibitory effect on TGF-β2 secretion: 64%
[2]
  autologous cytotoxicity against human HGG cells, mean: 40%
[3]; 80 μM, 7 days
  PBMC proliferation, of untreated control cells: 67%
[3]; 1, 5, 10 or 80 μM, up to 21 day, Trypan blue
  effects on the viability of PBMCs: No relevant effects
[3]; 5, 10 or 50μM
  Proliferation of PBMCs: within the range of variation
[4]
  Lowest-Observed-Adverse-Effect Level (LOAEL), equivalent in human adults: 48 mg/m^2/day
[5]; 2nd-line therapy, independent of dose and schedule
  mOS: 8.9 months
[5]; 2nd-line, 140 mg/m^2/day 4-on/10-off, no subsequent chemotherapy
  mOS: 2.6 months
[5]; 2nd-line, 140 mg/m^2/day 4-on/10-off, with subsequent chemotherapy
  mOS: 16.9 months
[5]; 2nd-line, 140 mg/m^2/day, 4-days-on, 10-days-off
  mOS: 14.5 months
[5]; 4-days-on, 10-days-off, 140 mg/m^2/day
  Median Overall Survival, Patients with pancreatic cancer: 14.5 months
[5]; 4-days-on, 10-days-off, 140 mg/m^2/day (additional patients)
  Median Overall Survival, Patients with pancreatic cancer: 3.3 months
[5]; 4-days-on, 10-days-off, 190 mg/m^2/day
  Median Overall Survival, Patients with pancreatic cancer: 6.2 months
[5]; 4-days-on, 10-days-off, 250 mg/m^2/day
  Median Overall Survival, Patients with pancreatic cancer: 7.3 months
[5]; 4-days-on, 10-days-off, 330 mg/m^2/day
  Median Overall Survival, Patients with pancreatic cancer: 2.4 months
[5]; 7-days-on, 7-days-off, 40 mg/m^2/day
  Median Overall Survival, Patients with pancreatic cancer: 6.9 months
[5]; 7-days-on, 7-days-off, 80 mg/m^2/day
  Median Overall Survival, Patients with pancreatic cancer: 4.6 months
[5]; 7-days-on, 7-days-off, 160 mg/m^2/day
  Median Overall Survival, Patients with pancreatic cancer: 3.9 months
[5]; 7-days-on, 7-days-off, 240 mg/m^2/day
  Median Overall Survival, Patients with pancreatic cancer: 5.5 months
[5]; all 35 pancreatic carcinoma patients, independent of dose and schedule
  mOS: 4.9 months
[5]; dose escalation, 4-days-on, 10-days-off schedule
  mOS: 9.3 months
[5]; dose escalation, 7-days-on, 7-days-off schedule
  mOS: 5.7 months
[6]; 4-days-on, 10-days-off schedule
  Survival: 11.4 months
[6]; 4-days-on, 10-days-off, with subsequent therapies
  mOS: 13.5 months
[6]; 4-days-on, 10-days-off, without subsequent therapies
  mOS: 6.0 months
[6]; 7-days-on, 7-days-off schedule
  Survival: 7.8 months
[6]; 14 additional patients, 140 mg/m^2/day, 4-days-on, 10-days-off
  mOS: 10.4 months
[6]; all melanoma patients independent of dose and schedule
  mOS: 11.4 months
[6]; last cohort 140 mg/m2/day, followed by subsequent therapy
  mOS: 13.5 months
[6]; last cohort 140 mg/m2/day, no subsequent therapy
  mOS: 6.0 months
[6]; melanoma patients of dose escalation
  mOS: 13.8 months
[6]; two patients, 2nd-line, 140 mg/m^2/day 4-on/10-off
  mOS: 9.5 months
[7]
  mOS: 3.0 months
[8]; SARS-CoV (Urbani strain), Vero 76, CPE neutral red, day 5
  EC50: 50% effective antiviral concentration: 7.6 µg/mL
[8]; SARS-CoV, Vero 76 cells
  SI (CC50/EC50): >38
[9]; SARS-CoV-2
  SI=CC50/EC50: >500
[9]; SARS-CoV-2, Vero 76 cells
  SI (CC50/EC50): >500
[9]; SARS-CoV-2 USA_WA1/2020, Vero 76, CPE neutral red, day 5
  EC50: 50% effective antiviral concentration: 2.0 µg/mL
[9]; read-out: EC50 (value in brackets), SARS-CoV-2 USA_WA1/2020, Vero 76
  EC50: 330 nM
[10]
  CC50: > 1000 µg/mL
[10]; 1000 μg/ml
  Toxicity at the highest dose: not toxic
[11]
  signal of cytokine storm following treatment: no signal of cytokine storm
[12]
  Tumor growth suppressed versus control group 1 on day 42: 2%
